From US8188222B2, “High molecular weight derivative of nucleic acid antimetabolite” (priority 2006, dated 2012) come the findings set out here.

For test [1], the system named is mouse colon cancer, Colon26. Nature of the test: Antitumor effect against tumor-bearing mouse (1). Type of test: in vivo. The note with it: 8th day after initiation of administration, once intravenously, volume on day of administration = 1.0, average ± SD. The source says: Tumor of mouse colon cancer, Colon26, maintained by subcutaneous subculture in mice, was minced into about 2-mm square blocks, and the blocks were transplanted subcutaneously on the dorsal part of a mouse using a trocar. On the 7th day after tumor transplantation, the compound of Example 5 dissolved in a 5% glucose injection solution and gemcitabine hydrochloride as a control drug dissolved in physiological saline were respectively administered once intravenously at the doses indicated in Table 2. The tumor volumes on the day of initiation of administration and on the 8th day after the initiation of administration were calculated by the following equation, and the relative tumor volumes on the day of initiation of administration and on the 8th day after the initiation of administration were determined.

Test [2] has as its system mouse colon cancer, Colon26. Nature of the test: Antitumor effect against tumor-bearing mouse (2). Type of test: in vivo. To be noted: once intravenously, dose 160 in terms of gemcitabine hydrochloride, average ± SD. The source says:
A tumor mass of mouse colon cancer, Colon26, which had been subcutaneously subcultured in a mouse was cut into a block having an edge of about 2 mm at each side, and was transplanted under the skin of a mouse using a trocar. On the 7th day after tumor transplantation, the compound of Example 11, the compound of Example 14 and the compound of Example 17, dissolved in a 5% glucose injection solution and gemcitabine hydrochloride as a control drug dissolved in physiological saline were respectively administered once intravenously at the doses indicated in Table 3. The tumor volumes on the day of initiation of administration, and on the 7th day and 26th day after the initiation of administration were calculated by the above-described equation, and the relative tumor volumes on the day of initiation of administration and on the 7th day and 26th day after the initiation of administration were determined.

SMILES strings stand for the structures. Counter-ions that a name gives are not always drawn.

`Nc1ccn([C@@H]2O[C@H](CO)[C@@H](O)C2(F)F)c(=O)n1` [Control drug, gemcitabine hydrochloride]: the Relative tumor volume came to 5.3 ± 1.1 in test [1] (dose 40 mg/kg in terms of gemcitabine hydrochloride) and 4.8 ± 1.7 in test [1] (dose 200 mg/kg in terms of gemcitabine hydrochloride). In addition, the “Relative tumor volume *” value in test [2] (7th day after initiation of administration) turned out to be 1.5 ± 1.5. Further, the “Relative tumor volume **” value in test [2] (26th day after initiation of administration) is given as 25.8 ± 36.0.
